Laboratory results as given in patent US11091490B2, “3-amino-1,5-dihydro-pyrazolo[3,4-d]pyrimidin-4-ones as cyclin dependent kinase inhibitors” (Oncotyrol Center for Personalized Cancer Medicine GMBH, priority 2016, dated 2021).
Where “and” joins values, the source holds several entries; their conditions need not be identical. Equal values may be shown once. Read-outs that look alike come from different tables or passages of the source.

Assays:
[1] = tested on: NCIH82 (lung); assay: In vitro proliferation screening (Sulforhodamin B) NCIH82; type: cell-based; settings: Homo sapiens, NCI-H82; NCIH82, 72 h; unit M
Excerpt: (§1) In order to evaluate the antitumor activity of the compounds of the present invention, in particular compound 86, in solid tumors, an in vitro proliferation screening in a panel of 10 different human cancer cell lines derived from solid tumors (see Table 5, below) as a model system.
(§2) Six 10-fold dilutions of compound 86 have been prepared in DMSO, from 5×10^−9 M to 5×10^−4. Single data points have been tested for each concentration. The final concentration of DMSO was 0.1%. The duration of the treatment was 72 hours. The growth inhibition was measured by using Sulforhodamin B, a protein-staining assay in accordance with Vichai V et. al. Nat. Protoc. 2006; 1(3):1112-6. Activity of the agents was determined by evaluating the following parameters: IC50, GI50, IC10, GI10, TGI, LC50, IC90 and GI90 (if these values could be calculated).

[2] = Pharmacokinetic studies; settings: in vivo
Excerpt: Pharmacokinetic studies on the compounds of the present invention have been carried out in accordance with Endele R and Senn M., Int. J. Mass Spectrom. Ion Phys. 1983 January; 48:81-84. doi:10.1016/0020-7381(83)87033-8.

[3] = tested on: U2OS (bone); assay: In vitro proliferation screening (Sulforhodamin B) U2OS; type: cell-based, human; settings: 72 h
Excerpt: as §1, §2

[4] = tested on: HS-5 bone marrow stroma cells (control); assay: Annexin V/PI staining HS-5; type: cell-based; settings: HS-5 control cells, 0.1 μM, 12 h and 24 h
Excerpt: (§3) In order to investigate the mode of action (MOA) related to the antitumor activity of the compounds of the present invention (in particular compound 86) in solid tumors and multiple myeloma, two experimental strategies were used to confirm the postulated MOA: 1) monitoring of apoptosis induction and 2) cell cycle analysis upon treatment with compound 86. Three cancer cell lines (LP-1, (multiple myeloma cells, DSMZ ACC 41), A375 (melanoma cells), and HeLa (cervix carcinoma cells)) as well as control cells (HS-5 bone marrow stroma cells, ATCC CRL-11882) were used to obtain mechanistic insight into the antitumor activity of compound 86.
(§4) Annexin V staining and Poly(ADP-ribose)-Polymerase 1 (PARP) protein cleavage was analyzed to identify a pro-apoptotic effect of compound 86 on tumor cells in accordance with the method of Koopman G, et. al. Blood 1994; 1; 84(5):1415-20. Annexin V allows the identification of cell surface changes that occur early during the apoptotic process by in situ detection, which is ideal for the analysis with adherent cells. Cleavage of PARP-1 by caspases is considered to be a hallmark of apoptosis and was therefore applied to monitor apoptosis induction after 24 h of treatment with 100 nM of compound 86.

[5] = tested on: A375 melanoma cells; assay: PARP cleavage Western blot A375; type: cell-based; settings: A375, 24 h, 100 nM, FIG. 1B legend 0.08 μM
Excerpt: as §3, §4

[6] = tested on: HS-5 bone marrow stroma cells (control); assay: Cell cycle analysis (propidium iodide FACS) HS-5; type: cell-based; settings: HS-5 control cells, 100 nM, 12 and 24 h
Excerpt: as §3
Measuring of DNA content in cells is a well-established method for monitoring cell proliferation, cell cycle, fragmentation of nuclei (apoptosis) and DNA ploidy. Proliferating cells progress through various phases of the cell cycle (G0, G1, S, G2, and M phase). At different stages of the cell cycle and life cycle, cell nuclei contain different amounts of DNA. The DNA content in cell nuclei was analyzed by propidium iodide (PI) staining and FACS analysis after 12 and 24 h of treatment with 100 nM of compound 86 in accordance with the method of Desai Brijal M. et. al. PLOS Vol. 8; Issue 3; p. 1-11, 2013.

[7] = tested on: NCI-H929/GN2; assay: Multiple myeloma cells in mono- and co-culture with osteoblasts, imaging based detection (NCI-H929); type: cell-based
Method: (§5) Compound 86 has been compared with the key compound of WO 2000/21926 A2 (Example 121) in an imaging based detection system.
(§6) Two different multiple myeloma (MM) cell lines (RPMI-8226 (DSMZ, ACC 402), NCI-H929 DSMZ, ACC 163) have been used and were cultured in mono- and co-culture with osteoblasts (OB) (Osteoblasts were obtained by culturing hMSCs with a differentiation inducing medium for two weeks) in accordance with the method of Karadag A. et al. Journal of Bone and Mineral Research Vol. 15, No. 10, 2000 page 1935-43.

[8] = tested on: RPMI-8226/GN1; assay: Multiple myeloma cells in mono- and co-culture with osteoblasts, imaging based detection (RPMI-8226); type: cell-based
Method: as §5, §6

[9] = tested on: HeLa cervix carcinoma cells; assay: Annexin V/PI staining HeLa; type: cell-based; settings: 0.1 μM, 12 h and 24 h
Excerpt: as §3, §4

[10] = tested on: COLO205 (colon); assay: In vitro proliferation screening (Sulforhodamin B) COLO205; type: cell-based, human; settings: COLO205, 72 h, unit M
Excerpt: as §1, §2

[11] = target: T1, CDK16 (Homo sapiens, UniProt Q00536); assay: Target selectivity profile (DiscoverX KinomeScan) CDK16; type: binding
T1 construct: purchased DiscoverX
Excerpt: 3. Target Selectivity Profile (DiscoverX KinomeScan)
According to an analysis of kinase inhibitory selectivity carried out in accordance with Karaman M W et al., Nat Biotechnol. 2008 January; 26(1):127-32. doi: 10.1038/nbt1358.

[12] = tested on: most CYP enzymes; assay: Drug-drug interactions: CYP inhibition; type: in vitro ADME
Excerpt: In assays carried out in accordance with the “Guideline on the investigation of drug interactions”, CPMP/EWP/560/95/Rev. 1 Corr. 2, European Medicines Agency, Committee for Human Medicinal Products (CHMP) and “Guidance for Industry, Drug Interaction Studies—Study Design, Data Analysis, Implications for Dosing, and Labeling Recommendations”, U.S. Department of Health and Human Services.

[13] = tested on: PBMC control cells; assay: In vitro proliferation screening (Sulforhodamin B) PBMC control cells; type: cell-based; settings: 72 h
Method: as §2

[14] = tested on: BXPC3 (pancreas); assay: In vitro proliferation screening (Sulforhodamin B) BXPC3; type: cell-based, human; settings: BXPC3, 72 h
Excerpt: as §1, §2

T1 sequence (Q00536 whole entry): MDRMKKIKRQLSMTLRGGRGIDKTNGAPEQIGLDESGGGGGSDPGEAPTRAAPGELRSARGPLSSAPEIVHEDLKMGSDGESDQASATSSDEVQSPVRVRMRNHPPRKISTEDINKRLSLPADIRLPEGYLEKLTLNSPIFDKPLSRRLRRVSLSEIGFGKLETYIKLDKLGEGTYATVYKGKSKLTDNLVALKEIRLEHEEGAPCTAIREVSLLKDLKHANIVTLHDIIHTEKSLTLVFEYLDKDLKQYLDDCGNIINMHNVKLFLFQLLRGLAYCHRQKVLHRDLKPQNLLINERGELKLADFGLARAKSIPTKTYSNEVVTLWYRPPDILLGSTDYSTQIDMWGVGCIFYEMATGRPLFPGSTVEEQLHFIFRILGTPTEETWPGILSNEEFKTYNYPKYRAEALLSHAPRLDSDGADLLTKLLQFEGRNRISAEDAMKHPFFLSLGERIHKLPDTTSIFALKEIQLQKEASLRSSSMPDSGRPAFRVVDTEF

In the case of CCN(CC)CC(=O)Nc1ccc(Cc2nc3c(c(N(C)C)nn3-c3c(Cl)cc(S(N)(=O)=O)cc3Cl)c(=O)[nH]2)cc1 [Compound 86, N-{4-[1-(2,6-Dichloro-4-sulfamoyl-phenyl)-3-dimethylamino-4-oxo-4,5-dihydro-1H-pyrazolo[3,4-d]pyrimidin-6-ylmethyl]-phenyl}-2-diethylamino-acetamide], the GI50 [1] is reported as 16.5 nM, the IC50 [1] is reported as 21.3 nM and the oral bioavailability [2] is reported as “display oral bioavailability”. For the same molecule, the “growth inhibitory response in words” value [3] was “responded rather weakly in the micromolar range”, the GI50 ([3]; Homo sapiens, unit M) was 94.2 nM and the IC50 ([3]; Homo sapiens, unit M) was 103 nM. The “induction of apoptosis (Annexin V/PI staining)” value (shortened to “induction of apoptosis”) [4] was “did not respond”, the PARP cleavage [5] was “specific induction of PARP cleavage” and the PARP cleavage ([5]; listed as Otviciclib) was “induction of PARP cleavage”. The “cell cycle profile (DNA content)” value [6] was “remained unchanged”, the EC50 ([7]; Homo sapiens, NCI-H929, NCI-H929/GN2, co-culture with osteoblasts, read-out: co-culture (+ OB) EC50) was 72 nM and the EC50 ([7]; Homo sapiens, NCI-H929, NCI-H929/GN2, mono-culture, read-out: mono-culture EC50) was 62 nM. It also gave an EC50 ([7]; NCI-H929/GN2, co-culture with osteoblasts, read-out: co-culture (+ OB) EC50) of 68 nM, an EC50 ([7]; NCI-H929/GN2, mono-culture, read-out: mono-culture EC50) of 55 nM and an EC50 ([8]; Homo sapiens, RPMI-8226, RPMI-8226/GN1, co-culture with osteoblasts, read-out: co-culture (+ OB) EC50) of 140 nM. The EC50 ([8]; Homo sapiens, RPMI-8226, RPMI-8226/GN1, mono-culture, read-out: mono-culture EC50) was 140 nM, the EC50 ([8]; RPMI-8226/GN1, co-culture with osteoblasts, read-out: co-culture (+ OB) EC50) was 220 nM and 180 nM and the EC50 ([8]; RPMI-8226/GN1, mono-culture, read-out: mono-culture EC50) was 190 nM and 120 nM. For the same molecule, the “induction of apoptosis” value [9] was “specific induction of apoptosis”, the “induction of apoptosis” value ([9]; listed as Otviciclib) was “reproducible induction of apoptosis” and the GI50 [10] was 20.9 nM. For the same molecule, the GI50 ([10]; Homo sapiens, COLO 205, 72 h) was 21 nM, the IC50 ([10]; Homo sapiens, COLO 205) was 24.2 nM and the “kinase inhibitory selectivity: CDK16” value [11] was “active as inhibitors”. For the same molecule, the “inhibitory activity of most CYP enzymes” value [12] was “only weak inhibitory activity”, the “response to treatment (growth inhibition)” value [13] was “resistant” and the “growth inhibitory response in words” value [14] was “growth inhibition in the middle nanomolar range”. The GI50 ([14]; Homo sapiens, BXPC-3, unit M) was 36.3 nM and the IC50 ([14]; Homo sapiens, BXPC-3, unit M) was 41.8 nM.
